{"source": "paper PMC5218480", "about": "(PLoS ONE, 2017)", "test_system": "MV-4-11 cells", "test": "Gene expression microarray analysis (Affymetrix PrimeView) and GSEA", "type": "cell-based, human", "set-up": "RFU PODN (11730768_x_at) / Fold change /veh PODN (11730768_x_at) / RFU LINC00158 (11744669_a_at) / Fold change /veh LINC00158 (11744669_a_at) / RFU DUSP10 (11751237_a_at) / Fold change /veh DUSP10 (11751237_a_at) / RFU ID3 (11757404_x_at) / Fold change /veh ID3 (11757404_x_at) / RFU PLEKHG5 (11737974_s_at) / Fold change /veh PLEKHG5 (11737974_s_at) / RFU LRRC4B (11730491_at) / Fold change /veh LRRC4B (11730491_at) / RFU GIMAP4 (11747438_a_at) / Fold change /veh GIMAP4 (11747438_a_at) / RFU KRT8 (11758183_x_at) / Fold change /veh KRT8 (11758183_x_at) / RFU CNN1 (11734310_a_at) / Fold change /veh CNN1 (11734310_a_at) / RFU VPS37D (11726825_at) / Fold change /veh VPS37D (11726825_at) / RFU C10orf10 (11716522_x_at) / Fold change /veh C10orf10 (11716522_x_at) / RFU KIR2DL2 /// KIR2DL4 /// KIR2DL5A /// KIR2DL5B /// KIR2DS1 /// KIR2DS2 /// KIR2DS3 /// KIR2DS4 /// KIR3DL3 /// KIR3DL3 /// KIR3DS1 (11738374_at) / Fold change /veh KIR2DL2 /// KIR2DL4 /// KIR2DL5A /// KIR2DL5B /// KIR2DS1 /// KIR2DS2 /// KIR2DS3 /// KIR2DS4 /// KIR3DL3 /// KIR3DL3 /// KIR3DS1 (11738374_at) / RFU C1QL1 (11718748_at) / Fold change /veh C1QL1 (11718748_at) / RFU TMPRSS4 (11747572_a_at) / Fold change /veh TMPRSS4 (11747572_a_at) / RFU HAMP (11756126_x_at) / Fold change /veh HAMP (11756126_x_at) / RFU RNFT2 (11725882_a_at) / Fold change /veh RNFT2 (11725882_a_at) / RFU NR4A2 (11747474_a_at) / Fold change /veh NR4A2 (11747474_a_at) / RFU ABCC12 (11746883_a_at) / Fold change /veh ABCC12 (11746883_a_at) / RFU TMEM136 (11760407_x_at) / Fold change /veh TMEM136 (11760407_x_at) / RFU CLDN22 /// WWC2 (11732394_at) / Fold change /veh CLDN22 /// WWC2 (11732394_at) / RFU HLA-DPB1 (11760878_x_at) / Fold change /veh HLA-DPB1 (11760878_x_at) / RFU SPINT1 (11716480_a_at) / Fold change /veh SPINT1 (11716480_a_at) / RFU GAP43 (11754022_s_at) / Fold change /veh GAP43 (11754022_s_at) / RFU A4GNT (11735810_at) / Fold change /veh A4GNT (11735810_at) / RFU PRB3 (11715151_x_at) / Fold change /veh PRB3 (11715151_x_at) / RFU TUBB4B (11761932_at) / Fold change /veh TUBB4B (11761932_at) / RFU CAPN14 (11732068_a_at) / Fold change /veh CAPN14 (11732068_a_at) / RFU TMCC2 (11721928_a_at) / Fold change /veh TMCC2 (11721928_a_at) / RFU IRGQ (11745062_a_at) / Fold change /veh IRGQ (11745062_a_at) / RFU FAM174B (11720279_a_at) / Fold change /veh FAM174B (11720279_a_at) / RFU TMPRSS4 (11748680_a_at) / Fold change /veh TMPRSS4 (11748680_a_at) / RFU FAM212B (11763350_a_at) / Fold change /veh FAM212B (11763350_a_at) / RFU PLEKHG5 (11743358_a_at) / Fold change /veh PLEKHG5 (11743358_a_at) / RFU ZSCAN30 (11745921_a_at) / Fold change /veh ZSCAN30 (11745921_a_at) / RFU CMKLR1 (11741424_a_at) / Fold change /veh CMKLR1 (11741424_a_at) / RFU LOC101060620 /// MAPK8IP1 (11723275_at) / Fold change /veh LOC101060620 /// MAPK8IP1 (11723275_at) / RFU SPTSSB (11747773_x_at) / Fold change /veh SPTSSB (11747773_x_at) / RFU PRSS12 (11739890_at) / Fold change /veh PRSS12 (11739890_at) / RFU BIN1 (11741810_x_at) / Fold change /veh BIN1 (11741810_x_at) / RFU WNT11 (11732464_a_at) / Fold change /veh WNT11 (11732464_a_at) / RFU C10orf10 (11716521_a_at) / Fold change /veh C10orf10 (11716521_a_at) / RFU C5orf56 (11738089_at) / Fold change /veh C5orf56 (11738089_at) / RFU CYB561 (11721691_x_at) / Fold change /veh CYB561 (11721691_x_at) / RFU ANKRD19P (11752326_a_at) / Fold change /veh ANKRD19P (11752326_a_at) / RFU OR2T12 /// OR2T33 /// OR2T8 (11738714_s_at) / Fold change /veh OR2T12 /// OR2T33 /// OR2T8 (11738714_s_at) / RFU VCAN (11748164_a_at) / Fold change /veh VCAN (11748164_a_at) / RFU JSRP1 (11732532_at) / Fold change /veh JSRP1 (11732532_at) / RFU KRTAP10-11 (11738290_x_at) / Fold change /veh KRTAP10-11 (11738290_x_at) / RFU MYO3A (11730013_a_at) / Fold change /veh MYO3A (11730013_a_at) / RFU EBF3 (11725865_a_at) / Fold change /veh EBF3 (11725865_a_at) / RFU CAMK2N1 (11719241_x_at) / Fold change /veh CAMK2N1 (11719241_x_at) / RFU C5orf56 (11738088_a_at) / Fold change /veh C5orf56 (11738088_a_at) / RFU OLFML3 (11715873_a_at) / Fold change /veh OLFML3 (11715873_a_at) / RFU LOC100653217 /// NTM (11731650_a_at) / Fold change /veh LOC100653217 /// NTM (11731650_a_at) / RFU MAPK11 (11762145_a_at) / Fold change /veh MAPK11 (11762145_a_at) / RFU FIZ1 (11724087_x_at) / Fold change /veh FIZ1 (11724087_x_at) / RFU OASL (11726364_x_at) / Fold change /veh OASL (11726364_x_at) / RFU SOX15 (11748057_x_at) / Fold change /veh SOX15 (11748057_x_at) / RFU CD79A (11719716_a_at) / Fold change /veh CD79A (11719716_a_at) / RFU HIST1H1D (11736915_at) / Fold change /veh HIST1H1D (11736915_at) / RFU CASKIN2 (11723855_a_at) / Fold change /veh CASKIN2 (11723855_a_at) / RFU LOC730098 (11760151_x_at) / Fold change /veh LOC730098 (11760151_x_at) / RFU OR4N2 (11742367_at) / Fold change /veh OR4N2 (11742367_at) / RFU PRRT2 (11749266_a_at) / Fold change /veh PRRT2 (11749266_a_at) / RFU SNX32 (11753110_a_at) / Fold change /veh SNX32 (11753110_a_at) / RFU CDHR5 (11726645_a_at) / Fold change /veh CDHR5 (11726645_a_at) / RFU RCAN1 (11760418_a_at) / Fold change /veh RCAN1 (11760418_a_at) / RFU FAM167A (11723789_a_at) / Fold change /veh FAM167A (11723789_a_at) / RFU FAM26E (11764081_at) / Fold change /veh FAM26E (11764081_at) / RFU ISYNA1 (11749810_s_at) / Fold change /veh ISYNA1 (11749810_s_at) / RFU ACY1 (11761880_at) / Fold change /veh ACY1 (11761880_at) / RFU 11764098_at / Fold change /veh 11764098_at / RFU SAMD14 (11745864_x_at) / Fold change /veh SAMD14 (11745864_x_at) / RFU NPB (11741838_a_at) / Fold change /veh NPB (11741838_a_at) / RFU TMPRSS6 (11731388_a_at) / Fold change /veh TMPRSS6 (11731388_a_at) / RFU KRTAP10-2 (11738614_at) / Fold change /veh KRTAP10-2 (11738614_at) / RFU ARHGAP8 /// PRR5-ARHGAP8 (11727945_x_at) / Fold change /veh ARHGAP8 /// PRR5-ARHGAP8 (11727945_x_at) / RFU KRTAP5-7 /// NADSYN1 (11734609_at) / Fold change /veh KRTAP5-7 /// NADSYN1 (11734609_at) / RFU RASL12 (11751679_a_at) / Fold change /veh RASL12 (11751679_a_at) / RFU CDKN2B (11736163_a_at) / Fold change /veh CDKN2B (11736163_a_at) / RFU PRF1 (11729649_at) / Fold change /veh PRF1 (11729649_at) / RFU, ZNF638 /// ZNF638-IT1 / Fold change vs veh, ZNF638 /// ZNF638-IT1 / RFU, PANK3 / Fold change vs veh, PANK3 / RFU, SH3YL1 / Fold change vs veh, SH3YL1 / RFU, ZEB2 / Fold change vs veh, ZEB2 / RFU, NRIP1 / Fold change vs veh, NRIP1 / RFU, PTTG1IP / Fold change vs veh, PTTG1IP / RFU, CAPN2 / Fold change vs veh, CAPN2 / RFU, MED14 / Fold change vs veh, MED14 / RFU, SNORA58 / Fold change vs veh, SNORA58 / RFU, C1orf63 / Fold change vs veh, C1orf63 / RFU, LRRFIP1 / Fold change vs veh, LRRFIP1 / RFU, NDUFAF7 / Fold change vs veh, NDUFAF7 / RFU, SLC12A2 / Fold change vs veh, SLC12A2 / RFU, IBTK / Fold change vs veh, IBTK / RFU, ESF1 / Fold change vs veh, ESF1 / Fold change vs veh, TMEM50B / RFU, TAOK1 / Fold change vs veh, TAOK1 / RFU, ACBD3 / Fold change vs veh, ACBD3 / RFU, TMA16 / Fold change vs veh, TMA16 / RFU, RWDD3 / Fold change vs veh, RWDD3 / RFU, BCAT1 / Fold change vs veh, BCAT1 / RFU, EDEM3 / Fold change vs veh, EDEM3 / RFU, TMEM33 / Fold change vs veh, TMEM33 / RFU, WDR75 / Fold change vs veh, WDR75 / RFU, AHCTF1 / Fold change vs veh, AHCTF1 / RFU, TFRC / Fold change vs veh, TFRC / RFU, ZDHHC17 / Fold change vs veh, ZDHHC17 / RFU, NOM1 / Fold change vs veh, NOM1 / RFU, ARL8B / Fold change vs veh, ARL8B / RFU, ZBTB11 / Fold change vs veh, ZBTB11 / RFU, TAMM41 / Fold change vs veh, TAMM41 / RFU, KIAA1704 /// LOC100996395 / Fold change vs veh, KIAA1704 /// LOC100996395 / RFU, ING1 / Fold change vs veh, ING1 / RFU, TRMT61B / Fold change vs veh, TRMT61B / RFU, FUBP3 / Fold change vs veh, FUBP3 / RFU, TP53 / Fold change vs veh, TP53 / RFU, TNKS2 / Fold change vs veh, TNKS2 / RFU, ZFP14 / Fold change vs veh, ZFP14 / RFU, ACTR2 / Fold change vs veh, ACTR2 / RFU, PPP3R1 / Fold change vs veh, PPP3R1 / RFU, PIK3R1 / Fold change vs veh, PIK3R1 / RFU, HNRNPA1 / Fold change vs veh, HNRNPA1 / RFU, RNF170 / Fold change vs veh, RNF170 / RFU, ZNF28 / Fold change vs veh, ZNF28 / RFU, RNGTT / Fold change vs veh, RNGTT / RFU, OGT / Fold change vs veh, OGT / RFU, BRD1 / Fold change vs veh, BRD1 / RFU, MARS / Fold change vs veh, MARS / RFU, ZNF655 / Fold change vs veh, ZNF655 / RFU, FAHD1 / Fold change vs veh, FAHD1 / RFU, BDP1 / Fold change vs veh, BDP1 / RFU, LRRCC1 / Fold change vs veh, LRRCC1 / RFU, ARID1A / Fold change vs veh, ARID1A / RFU, ZNF146 / Fold change vs veh, ZNF146 / RFU, ZNF330 / Fold change vs veh, ZNF330 / RFU, GPN3 / Fold change vs veh, GPN3 / RFU, C9orf123 / Fold change vs veh, C9orf123 / RFU, N4BP2L2 / Fold change vs veh, N4BP2L2 / RFU, ARFIP1 / Fold change vs veh, ARFIP1 / RFU, FAM179B / Fold change vs veh, FAM179B / RFU, BCL10 / Fold change vs veh, BCL10 / RFU, UHRF1BP1L / Fold change vs veh, UHRF1BP1L / RFU, BET1 / Fold change vs veh, BET1 / RFU, CNOT2 / Fold change vs veh, CNOT2 / RFU, ZNF268 / Fold change vs veh, ZNF268 / Fold change vs veh, ZNF507 / RFU, DGCR2 / Fold change vs veh, DGCR2 / RFU, WDSUB1 / Fold change vs veh, WDSUB1 / Fold change vs veh, HSP90B1 /// MIR3652 / RFU, ADSS / Fold change vs veh, ADSS / RFU, GK / Fold change vs veh, GK / RFU, ZNF148 / Fold change vs veh, ZNF148 / RFU, TAF9 / Fold change vs veh, TAF9 / RFU, SLC1A5 / Fold change vs veh, SLC1A5 / RFU, SLMO2 / Fold change vs veh, SLMO2 / RFU, ABCC4 / Fold change vs veh, ABCC4 / RFU, LOC101060439 /// RAP1B / Fold change vs veh, LOC101060439 /// RAP1B / RFU, RFX7 / Fold change vs veh, RFX7 / RFU, GTPBP10 / Fold change vs veh, GTPBP10 / RFU, CNEP1R1 / Fold change vs veh, CNEP1R1 / RFU, BIVM-ERCC5 /// ERCC5 / Fold change vs veh, BIVM-ERCC5 /// ERCC5 / RFU, ILF3 / Fold change vs veh, ILF3 / RFU 11762660_at / Fold change /veh 11762660_at / RFU VCAN (11757783_s_at) / Fold change /veh VCAN (11757783_s_at) / RFU DDX43 (11728927_at) / Fold change /veh DDX43 (11728927_at) / RFU KRT8 (11758188_x_at) / Fold change /veh KRT8 (11758188_x_at) / RFU NKD1 (11759106_at) / Fold change /veh NKD1 (11759106_at) / RFU SRD5A1 (11742802_a_at) / Fold change /veh SRD5A1 (11742802_a_at) / RFU TPSAB1 /// TPSB2 (11721975_s_at) / Fold change /veh TPSAB1 /// TPSB2 (11721975_s_at) / RFU GSTM3 (11746129_a_at) / Fold change /veh GSTM3 (11746129_a_at) / RFU IL23R (11737362_x_at) / Fold change /veh IL23R (11737362_x_at) / RFU TMEM51 (11727254_a_at) / Fold change /veh TMEM51 (11727254_a_at) / RFU PIWIL2 (11732686_x_at) / Fold change /veh PIWIL2 (11732686_x_at) / RFU ORM1 (11744905_x_at) / Fold change /veh ORM1 (11744905_x_at) / RFU CCDC152 (11743942_at) / Fold change /veh CCDC152 (11743942_at) / RFU ECM1 (11717891_a_at) / Fold change /veh ECM1 (11717891_a_at) / RFU IL23R (11748794_a_at) / Fold change /veh IL23R (11748794_a_at) / RFU TNFAIP8L3 (11732012_x_at) / Fold change /veh TNFAIP8L3 (11732012_x_at) / RFU MBOAT4 (11741988_at) / Fold change /veh MBOAT4 (11741988_at) / RFU 11764193_at / Fold change /veh 11764193_at / RFU TMEM53 (11763286_at) / Fold change /veh TMEM53 (11763286_at) / RFU MAGEB2 (11727129_at) / Fold change /veh MAGEB2 (11727129_at) / RFU TMEM200A (11744735_a_at) / Fold change /veh TMEM200A (11744735_a_at) / RFU CCDC152 (11751479_a_at) / Fold change /veh CCDC152 (11751479_a_at) / RFU FAM211A (11726209_a_at) / Fold change /veh FAM211A (11726209_a_at) / RFU RGS16 (11746705_a_at) / Fold change /veh RGS16 (11746705_a_at) / RFU VCAN (11755009_s_at) / Fold change /veh VCAN (11755009_s_at) / RFU RHOB (11743442_s_at) / Fold change /veh RHOB (11743442_s_at) / RFU RGS16 (11720943_a_at) / Fold change /veh RGS16 (11720943_a_at) / RFU RGS16 (11720944_at) / Fold change /veh RGS16 (11720944_at) / RFU, VPS4B / Fold change vs veh, VPS4B / RFU, CREB1 / Fold change vs veh, CREB1 / RFU, DNAJC13 / Fold change vs veh, DNAJC13 / RFU, GNAQ / Fold change vs veh, GNAQ / RFU, CDK5R1 / Fold change vs veh, CDK5R1 / RFU, ZRANB3 / Fold change vs veh, ZRANB3 / RFU, CUL4A / Fold change vs veh, CUL4A / RFU, CCNY / Fold change vs veh, CCNY / RFU, UFL1 / Fold change vs veh, UFL1 / RFU, COG3 / Fold change vs veh, COG3 / RFU, DIAPH2 / Fold change vs veh, DIAPH2 / RFU, SKA2 / Fold change vs veh, SKA2 / RFU, AFF3 / Fold change vs veh, AFF3 / RFU, LMF1 / Fold change vs veh, LMF1 / RFU, IPO11 / Fold change vs veh, IPO11 / RFU, DFFB / Fold change vs veh, DFFB / RFU, FOXP1 / Fold change vs veh, FOXP1 / RFU, CARD8 / Fold change vs veh, CARD8 / RFU, STRN3 / Fold change vs veh, STRN3 / RFU, ADK / Fold change vs veh, ADK / RFU, RASSF2 / Fold change vs veh, RASSF2 / RFU, WIPF1 / Fold change vs veh, WIPF1 / RFU, LARP1B / Fold change vs veh, LARP1B / RFU, RASA1 / Fold change vs veh, RASA1 / RFU, RB1 / Fold change vs veh, RB1 / RFU, PPFIA1 / Fold change vs veh, PPFIA1 / RFU, MAT2A / Fold change vs veh, MAT2A / RFU, CCT5 / Fold change vs veh, CCT5 / RFU, WDR92 / Fold change vs veh, WDR92 / RFU, CUX1 / Fold change vs veh, CUX1 / RFU, TTC7A / Fold change vs veh, TTC7A / RFU, TMEM135 / Fold change vs veh, TMEM135 / RFU, DEPTOR / Fold change vs veh, DEPTOR / RFU, CPM / Fold change vs veh, CPM / RFU, DNAJB6 / Fold change vs veh, DNAJB6 / RFU, CACNA2D3 / Fold change vs veh, CACNA2D3 / RFU, DTX4 / Fold change vs veh, DTX4 / RFU, TFCP2 / Fold change vs veh, TFCP2 / RFU, GMCL1 /// GMCL1P1 / Fold change vs veh, GMCL1 /// GMCL1P1 / RFU, AEBP2 / Fold change vs veh, AEBP2 / RFU, SNHG1 /// SNORD22 /// SNORD25 /// SNORD26 /// SNORD27 /// SNORD28 /// SNORD29 /// SNORD31 / Fold change vs veh, SNHG1 /// SNORD22 /// SNORD25 /// SNORD26 /// SNORD27 /// SNORD28 /// SNORD29 /// SNORD31 / Fold change (Aza/veh), C12orf56 (ProbeSet 11735607_a_at) / Fold change (ACY-1035/veh), C12orf56 (ProbeSet 11735607_a_at) / Fold change (Aza/veh), FGFR1OP (ProbeSet 11751329_s_at) / Fold change (ACY-1035/veh), FGFR1OP (ProbeSet 11751329_s_at) / Fold change (Aza/veh), VPS36 (ProbeSet 11739960_a_at) / Fold change (ACY-1035/veh), VPS36 (ProbeSet 11739960_a_at) / RFU SYPL1 (11715823_x_at) / Fold change /veh SYPL1 (11715823_x_at) / RFU IGFBP7 (11715501_s_at) / Fold change /veh IGFBP7 (11715501_s_at) / RFU REEP3 (11722064_at) / Fold change /veh REEP3 (11722064_at) / RFU IGLL1 (11728026_x_at) / Fold change /veh IGLL1 (11728026_x_at): dose or concentration left out as unconfirmed", "settings": "ProbeSet 11720270_a_at; LIST B"}
{"smiles": "Nc1ncn([C@@H]2O[C@H](CO)[C@@H](O)[C@H]2O)c(=O)n1", "note": "[azacitidine]", "values": [{"measurement": "RFU, IBTK", "result": 397.77, "unit": "RFU"}]}
